Target: T1, human pancreatic lipase (Homo sapiens, UniProt P16233)
T1 construct: purchased MilliporeSigma SRE0028
Experiment: Activity of purified pancreatic lipase, radiolabeled triolein
Format: biochemical
Conditions: NG-497 100 µM
Protocol: Fig. S3: Investigation of off-target effects of NG-497 on structurally and functionally related lipid hydrolases. (a) PNPLA1-dependent formation of acylceramides was monitored in a cell-based assay in HEK293T cells. Experiments were performed in the presence or absence of NG-497 (40 µM) and the non-selective lipase inhibitor Orlistat (40 µM). Orlistat, but not NG-497, inhibited PNPLA1/CGI-58-dependent ω-O-acylceramide formation. (b-h) Enzymes were overexpressed in Expi293 cells and cell lysates were used as source of enzymatic activity. […] Experiments were performed in the presence or absence of NG-497 (100 µM) and the formation of reaction products was monitored. […]
Data were calculated relative to the basal activity detected in LacZ-transfected controls. […]
LPL activity was inhibited using an anti-LPL antibody. All data are presented as mean ± S.D. Statistical significance was determined via ANOVA followed by Bonferroni post hoc test ( ***, p < 0.001). […]
Released free fatty acids were quantified via NEFA C kit (Fujifilm Wako Chemicals, Neuss, Germany) and release of p-nitrophenol was measured at 405 nm. […] Cellular ω-O-acylceramide formation was monitored using [1-14C]linoleic acid as tracer. […] The activity of purified human pancreatic lipase (MilliporeSigma #SRE0028) was determined as previously described7 in the presence or absence of NG-497 (100µM) or Orlistat (20 µM). […]

T1 sequence (P16233 17-465): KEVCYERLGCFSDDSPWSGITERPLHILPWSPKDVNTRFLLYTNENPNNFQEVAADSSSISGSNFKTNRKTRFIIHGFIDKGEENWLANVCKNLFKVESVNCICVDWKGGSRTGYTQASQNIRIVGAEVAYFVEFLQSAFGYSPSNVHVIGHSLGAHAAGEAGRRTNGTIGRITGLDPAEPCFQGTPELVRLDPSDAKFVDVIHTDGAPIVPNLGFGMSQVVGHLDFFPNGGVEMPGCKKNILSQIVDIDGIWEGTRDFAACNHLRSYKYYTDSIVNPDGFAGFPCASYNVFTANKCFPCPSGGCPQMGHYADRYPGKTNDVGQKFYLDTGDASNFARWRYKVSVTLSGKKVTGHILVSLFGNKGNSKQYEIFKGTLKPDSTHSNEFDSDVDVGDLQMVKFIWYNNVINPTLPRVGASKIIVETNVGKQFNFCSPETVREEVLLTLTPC

## CCOc1ccc(-c2cc(OC)cc(C(=O)OC(C)C)n2)cc1 [NG-497]
  inhibition of pancreatic lipase: did not observe inhibition

Reference: paper PMC9011347, “Small-Molecule Inhibitors Targeting Lipolysis in Human Adipocytes” (Journal of the American Chemical Society, 2022)
